Data: patent US8445030B2 (priority 2009, dated 2013)
Entries after “also recorded” stand apart in the source; their conditions may differ. Like-named read-outs stand apart in the source and are kept apart here.

Columns and labels:
Microbes = experiment: Microbial efficacy and duration of effects of components; conditions: component of the spray of Example 1
microorganisms = experiment: Antiseptic function of components in CaF2-based formulations (Examples 2-4)
[1] = cited from earlier work
[2] = same as normal skin (pH 5.4-5.5)
[3] = component of Example 2 wound gel
[4] = component of Example 3 hair gel
[5] = component of Example 4 hand disinfection spray

## [Ca+2].[F-].[F-] [CaF2 (calcium fluoride), calcium fluoride]
Microbes
  Microbial Efficacy: bactericide, virucide,; also recorded: fungicide
microorganisms; [3]
  persistent antiseptic action: log 3, persistent
microorganisms; [4]
  persistent antiseptic action: log 3, persistent
microorganisms; [5]
  persistent antiseptic action: log 3, persistent
[1]; oral, rats
  LD 50 Oral on Rats: 4500 mg/kg
[2]
  pH: 5.4

## O=C(O)C=Cc1ccccc1 [Cinnamic acid]
Microbes
  Duration of Effects: short to long
  Microbial Efficacy: bactericide, virucide,; also recorded: fungicide

## O=C(O)CC(O)(CC(=O)O)C(=O)O [Citric acid]
Microbes
  Microbial Efficacy: bactericide, virucide,; also recorded: fungicide

## CCO [Ethanol]
microorganisms; [3]
  fast acting antiseptic action: log 6, fast acting
microorganisms; [5]
  fast acting antiseptic action: log 6, fast acting

## OO [H2O2 (hydrogen peroxide), hydrogen peroxide]
Microbes
  Duration of Effects: short (short = within 60 sec up to max 5 min)
  Microbial Efficacy: bactericide, virucide,; also recorded: fungicide
[1]; rat, in vivo, po
  LD 50 Oral on Rats: 2000 mg/kg

## CC(C)O [Isopropyl alcohol]
microorganisms; [4]
  fast acting antiseptic action: log 6, fast acting

## [Na+].[O-]Cl [NaOCl (Javel water), NaOCl]
Microbes
  Microbial Efficacy: bactericide, virucide,; also recorded: fungicide
microorganisms; [5]
  fast acting antiseptic action: log 6, fast acting
[1]; oral, rats
  LD 50 Oral on Rats: 2000 mg/kg

## O=C(O)[C@]1(O)C[C@@H](O)[C@@H](O)[C@H](O)C1 [Quinic acid]
Microbes
  Microbial Efficacy: bactericide, virucide,; also recorded: fungicide
[1]; rat, in vivo, po
  LD 50 Oral on Rats: >8000 mg/kg
